In patent publication US8871680B2, “Herbicidal compositions comprising 4-amino-3-chloro-5-fluoro-6-(4-chloro-2-fluoro-3-methoxyphenyl) pyridine-2-carboxylic acid or a derivative thereof and a di-methoxy-pyrimidine and derivatives thereof” (Dow AgroSciences LLC, priority 2012, dated 2014):

How the values were obtained:
DIGSA = assay: Postemergence foliar-applied weed control, direct seeded rice (greenhouse); format: in vivo, Digitaria sanguinalis (L.) Scop.
Excerpt: (§1) Seeds or nutlets of the desired test plant species were planted in a soil matrix prepared by mixing a loam or sandy loam soil (e.g., 28.6 percent silt, 18.8 percent clay, and 52.6 percent sand, with a pH of about 5.8 and an organic matter content of about 1.8 percent) and calcareous grit in an 80 to 20 ratio. The soil matrix was contained in plastic pots with a volume of 1 quart and a surface area of 83.6 square centimeters (cm^2). When required to ensure good germination and healthy plants, a fungicide treatment and/or other chemical or physical treatment was applied. The plants were grown for 8-22 days in a greenhouse with an approximate 14 hr photoperiod which was maintained at about 29° C. during the day and 26° C. during the night. Nutrients (Peters Excel® 15-5-15 5-Ca 2-Mg and iron chelate) were applied in the irrigation solution as needed and water was added on a regular basis. Supplemental lighting was provided with overhead metal halide 1000-Watt lamps as necessary. The plants were employed for testing when they reached the first through fourth true leaf stage.
(§2) Treatments consisted of the acid or esters of 4-amino-3-chloro-5-fluoro-6-(4-chloro-2-fluoro-3-methoxy-phenyl)pyridine-2-carboxylic acid (Compound A), each formulated as an SC (suspension concentrate), and various herbicidal components alone and in combination. Forms of compound A were applied on an acid equivalent basis.
(§3) Other herbicidal components were applied on an active ingredient basis and included the dimethoxy-pyrimidine acid acetolactate synthase (ALS)-inhibiting herbicides bispyribac-sodium formulated as Regiment® 80WP, pyribenzoxim (technical grade material), pyriminobac-methyl formulated as Hie-Clean® 1.2% GR dissolved in water, and pyriftalid (technical grade material).
(§4) Treatment requirements were calculated based upon the rates being tested, the concentration of active ingredient or acid equivalent in the formulation, and a 12 mL application volume at a rate of 187 L/ha.
(§5) For treatments comprised of formulated compounds, measured amounts of compounds were placed individually in 25 mL glass vials and diluted in a volume of 1.25% (v/v) Agri-Dex® crop oil concentrated to obtain 12× stock solutions. […] Application solutions were prepared by adding an appropriate amount of each stock solution (e.g., 1 mL) and diluted to the appropriate final concentrations with the addition of 10 mL of an aqueous mixture of 1.25% (v/v) crop oil concentrate so that the final spray solutions contained 1.25+/−0.005% (v/v) crop oil concentrate.
For treatments comprised of technical compounds, weighed amounts can be placed individually in 25 mL glass vials and dissolved in a volume of 97:3 v/v acetone/DMSO to obtain 12× stock solutions. […] Application solutions can be prepared by adding an appropriate amount of each stock solution (e.g., 1 mL) and diluted to the appropriate final concentrations with the addition of 10 mL of an aqueous mixture of 1.5% (v/v) crop oil concentrate so that the final spray solutions contain 1.25% (v/v) crop oil concentrate. […]
(§6) For treatments comprised of formulated and technical compounds, weighed amounts of the technical materials were placed individually in 25 mL glass vials and dissolved in a volume of 97:3 v/v acetone/DMSO to obtain 12× stock solutions, and measured amounts of the formulated compounds were placed individually in 25 mL glass vials and diluted in a volume of 1.5% (v/v) crop oil concentrate or water to obtain 12× stock solutions. […]

IPOHE = assay: as above; format: in vivo, Ipomoea hederacea Jacq.
Excerpt: as §1, §2, §3, §4, §5
For treatments comprised of technical compounds, weighed amounts can be placed individually in 25 mL glass vials and dissolved in a volume of 97:3 v/v acetone/DMSO to obtain 12× stock solutions. […] Application solutions can be prepared by adding an appropriate amount of each stock solution (e.g., 1 mL) and diluted to the appropriate final concentrations with the addition of 10 mL of an aqueous mixture of 1.5% (v/v) crop oil concentrate so that the final spray solutions contain 1.25% (v/v) crop oil concentrate. When technical materials are used, the concentrated stock solutions can be added to the spray solutions so that the final acetone and DMSO concentrations of the application solutions are 16.2% and 0.5%, respectively.
as §6

BRAPP = assay: as above; format: in vivo, Brachiaria platyphylla (Griseb.) Nash; conditions: 4.38 gae/ha
Excerpt: as §1, with “stage. […]” for “stage.”
as §4
For treatments comprised of formulated compounds, measured amounts of compounds were placed individually in 25 mL glass vials and diluted in a volume of 1.25% (v/v) Agri-Dex® crop oil concentrated to obtain 12× stock solutions. […]
as §6

ECHCG = assay: In-water applied weed control, transplanted paddy rice (greenhouse); format: in vivo, Echinochloa crusgalli (L.) Beauv.
Experimental: (§7) Weed seeds or nutlets of the desired test plant species were planted in puddled soil (mud) prepared by mixing a shredded, non-sterilized mineral soil (50.5 percent silt, 25.5 percent clay, and 24 percent sand, with a pH of about 7.6 and an organic matter content of about 2.9 percent) and water at a 1:1 volumetric ratio. The prepared mud was dispensed in 365 mL aliquots into 16-ounce (oz.) non-perforated plastic pots with a surface area of 86.59 square centimeters (cm^2) leaving a headspace of 3 centimeters (cm) in each pot. Mud was allowed to dry overnight prior to planting or transplanting. Rice seeds were planted in Sun Gro MetroMix® 306 planting mixture, which typically has a pH of 6.0 to 6.8 and an organic matter content of about 30 percent, in plastic plug trays. Seedlings at the second or third leaf stage of growth were transplanted into 860 mL of mud contained in 32-oz. non-perforated plastic pots with a surface area of 86.59 cm^2 4 days prior to herbicide application. The paddy was created by filling the headspace of the pots with 2.5 to 3 cm of water. When required to ensure good germination and healthy plants, a fungicide treatment and/or other chemical or physical treatment was applied. The plants were grown for 4-22 days in a greenhouse with an approximate 14 hr photoperiod which was maintained at about 29′C during the day and 26° C. during the night. Nutrients were added as Osmocote® (19:6:12, N:P:K+minor nutrients) at 2 g per 16-oz. pot and 4 g per 32-oz. pot. Water was added on a regular basis to maintain the paddy flood, and supplemental lighting was provided with overhead metal halide 1000-Watt lamps as necessary. The plants were employed for testing when they reached the first through fourth true leaf stage.
(§8) Treatments consisted of the acid or esters of 4-amino-3-chloro-5-fluoro-6-(4-chloro-2-fluoro-3-methoxy-phenyl)pyridine-2-carboxylic acid (compound A) each formulated as an SC and various herbicidal components alone and in combination. Forms of compound A were applied on an acid equivalent basis.
(§9) Other herbicidal components were applied on an active ingredient basis and included the dimethoxy-pyrimidine acid acetolactate synthase (ALS)-inhibiting herbicides bispyribac-sodium formulated as Regiment® 80 WP, pyriminobac-methyl formulated as Hie Clean®, and pyriftalid (technical grade material).
(§10) Treatment requirements for each compound or herbicidal component were calculated based upon the rates being tested, the concentration of active ingredient or acid equivalent in the formulation, an application volume of 2 mL per component per pot, and an application area of 86.59 cm^2 per pot.
(§11) For formulated compounds, a measured amount was placed in an individual 100 or 200 mL glass vial and was dissolved in a volume of 1.25% (v/v) Agri-Dex® crop oil concentrate to obtain application solutions.
(§12) For technical grade compounds, a weighed amount was placed in an individual 100 to 200 mL glass vial and was dissolved in a volume of acetone to obtain concentrated stock solutions. […] The concentrated stock solutions obtained were diluted with an equivalent volume of an aqueous mixture containing 2.5% (v/v) crop oil concentrate so that the final application solutions contained 1.25% (v/v) crop oil concentrate.
(§13) Applications were made by injecting with a pipetter appropriate amounts of the application solutions, individually and sequentially, into the aqueous layer of the paddy.
(§14) Control plants were treated in the same manner with the solvent blank. Applications were made so that all treated plant material received the same concentrations of acetone and crop oil concentrate.
(§15) The treated plants and control plants were placed in a greenhouse as described above and water was added as needed to maintain a paddy flood. […]

ECHOR = assay: as above; format: in vivo, Echinochloa oryzoides (Ard.) Fritsch; conditions: 42.2 gae/ha
Experimental: as §7, §8, §9, §10, §11, §12, §13
(§16) Control plants were treated in the same manner with the solvent blank. […]

LEFCH = assay: as above; format: in vivo, Leptochloa chinensis (L.) Nees
Experimental: as §7, §8, §9, §10, §11, §12, §13, §16

SCPMA = assay: as above; format: in vivo, Bolboschoenus maritimus (L.) Palla
Experimental: as §7, §8, §9, §10, §11, §12, §13, §14, §15

CYPRO = assay: as above; format: in vivo, Cyperus rotundus L.
Experimental: as §7, §8, §9, §10, §11, §12, §13, §14, §15

ECHCO = assay: as above; format: in vivo, Echinochloa colona (L.) Link
Experimental: as §7, with “Water was added on a regular basis to maintain the paddy flood, and supplemental lighting was provided with overhead metal halide 1000-Watt lamps as necessary. The plants were employed for testing when they reached the first through fourth true leaf stage.” left out
as §10
For formulated compounds, a measured amount was placed in an individual 100 or 200 mL glass vial and was dissolved in a volume of 1.25% (v/v) Agri-Dex® crop oil concentrate to obtain application solutions. […]

FIMMI = assay: as above; format: in vivo, Fimbristylis miliacea (L.) Vahl
Experimental: as §7, §8, §9, §10, §11, §12, §13, §14, §15

COc1c(Cl)ccc(-c2nc(C(=O)O)c(Cl)c(N)c2F)c1F [Compound A Acid, 4-amino-3-chloro-6-(4-chloro-2-fluoro-3-methoxyphenyl)-5-fluoropyridine-2-carboxylic acid]
Visual Weed Control (%)-24 DAA DIGSA Obs (DIGSA; 4.38 gae/ha): 20%
Visual Weed Control (%)-24 DAA DIGSA Obs (DIGSA; 8.75 gae/ha): 25%
Visual Weed Control (%)-24 DAA DIGSA Obs (DIGSA; 17.5 gae/ha): 25%
Visual Weed Control (%)-24 DAA IPOHE Obs (IPOHE; 4.38 gae/ha): 10%
Visual Weed Control (%)-24 DAA IPOHE Obs (IPOHE; 8.75 gae/ha): 10%
Visual Weed Control (%)-24 DAA IPOHE Obs (IPOHE; 17.5 gae/ha): 30%
Visual Weed Control (%)-24 DAA IPOHE Obs (IPOHE; 17.5 gae/ha, second part of Table 3): 25%
Visual Weed Control (%)-24 DAA IPOHE Obs (IPOHE; 35 gae/ha, second part of Table 3): 48%
Visual Weed Control (%)-22 DAA BRAPP Obs (BRAPP): 45%
Visual Weed Control (%) - 20 DAA ECHCG Obs (ECHCG; 8.75 gae/ha): 0%
Visual Weed Control (%) - 20 DAA ECHCG Obs (ECHCG; 17.5 gae/ha): 35%
Visual Weed Control (%) - 20 DAA ECHCG Obs (ECHCG; 35 gae/ha): 55%
Visual Weed Control (%) - 20 DAA ECHCG Obs (ECHCG; 42.2 gae/ha): 18%
Visual Weed Control (%)-20 DAA ECHOR Obs (ECHOR): 18%
Visual Weed Control (%)-21 DAA LEFCH Obs (LEFCH; 8.75 gae/ha): 0%
Visual Weed Control (%)-21 DAA LEFCH Obs (LEFCH; 17.5 gae/ha): 0%
Visual Weed Control (%)-20 DAA LEFCH Obs (LEFCH; 42.2 gae/ha): 15%
Visual Weed Control (%)-21 DAA SCPMA Obs (SCPMA; 8.75 gae/ha): 0%
Visual Weed Control (%)-21 DAA SCPMA Obs (SCPMA; 17.5 gae/ha): 0%
Visual Weed Control (%)-20 DAA SCPMA Obs (SCPMA; 35 gae/ha): 0%
Visual Weed Control (%)-21 DAA SCPMA Obs (SCPMA; 35 gae/ha): 0%
Visual Weed Control (%)-20 DAA SCPMA Obs (SCPMA; 42.2 gae/ha): 0%
Visual Weed Control (%)-20 DAA SCPMA Obs (SCPMA; 70 gae/ha): 0%
Visual Weed Control (%)-21 DAA CYPRO Obs (CYPRO; 8.75 gae/ha): 30%
Visual Weed Control (%)-21 DAA CYPRO Obs (CYPRO; 17.5 gae/ha): 40%
Visual Weed Control (%)-21 DAA CYPRO Obs (CYPRO; 35 gae/ha): 70%
Visual Weed Control (%)-21 DAA ECHCO Obs (ECHCO; 8.75 gae/ha): 0%
Visual Weed Control (%)-21 DAA ECHCO Obs (ECHCO; 17.5 gae/ha): 20%
Visual Weed Control (%)-21 DAA FIMMI Obs (FIMMI; 8.75 gae/ha): 50%
Visual Weed Control (%)-21 DAA FIMMI Obs (FIMMI; 17.5 gae/ha): 85%
Visual Weed Control (%)-21 DAA FIMMI Obs (FIMMI; 35 gae/ha): 85%
